Measurements published in patent US9657033B2, “Tetrahydronaphthyridine and related bicyclic compounds for inhibition of RORγ activity and the treatment of disease” (Merck Sharp & Dohme Corp., priority 2012, dated 2017).

Columns and labels:
RORγ-LBD [1] = target: T1, RORγ-LBD (Homo sapiens (Human), UniProt P51449); assay: RORγ-Ligand Binding Domain (LBD) TR-FRET Assay Protocol I; type: biochemical; conditions: for EC50: RORγ-LBD lysate from SF9 cells, SRC1-2 peptide; for RORγ inhibition: Protocol I, assay measuring EC50 values less than or equal to 10 μM
T1 sequence (P51449 269-508): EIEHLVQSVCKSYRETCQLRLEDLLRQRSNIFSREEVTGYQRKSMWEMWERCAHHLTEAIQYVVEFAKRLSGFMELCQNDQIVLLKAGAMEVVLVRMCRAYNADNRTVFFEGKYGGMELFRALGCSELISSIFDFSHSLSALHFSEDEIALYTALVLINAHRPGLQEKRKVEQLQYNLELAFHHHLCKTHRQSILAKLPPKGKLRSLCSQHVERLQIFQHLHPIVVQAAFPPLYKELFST
Protocol: Part I—Procedures for RORγ-Ligand Binding Domain TR-FRET Assay Protocol I
Recombinant,HIS-tagged RORγ-LBD was expressed in SF9 cells using a baculovirus expression system. Cells were lysed and the lysate was used as a source for RORγ-LBD for the assay. A 1:80 dilution of RORγ-LBD lysate in assay buffer (25 mM HEPES pH 7.0, 100 mM NaCl, 0.01% Tween, 0.1% BSA) was prepared and 5 μL was added to each well (RORγ-LBD final concentration ˜3 nM). Control wells received lysate from SF9 cells not expressing RORγ-LBD.
Compounds to be tested were diluted to 100× final test concentration in DMSO and further diluted to 4× final test concentration using assay buffer to provide the test compound mixture. An aliquot (5 μL) of the test compound mixture was added to each well.
A 4× stock of biotinylated-LXXLL peptide from SRC1-2 (Biotin-[…]) was prepared in assay buffer and a 5 μL aliquot added to each well (450 nM final concentration). A 4× solution of europium tagged anti-HIS antibody (2 nM final concentration) and APC conjugated streptavidin (60 nM final concentration) were prepared and a 5 μL aliquot added to each well.
(§1) The final assay mixture was incubated for 4 hours to overnight, and the fluorescence signal was measured on an Envision plate reader: (Excitation filter=340 nm; APC emission=665 nm; Europium emission=615 nm; dichroic mirror=D400/D630; delay time=100 μs, integration time=200 μs).
EC50 values for test compounds were calculated from the quotient of the fluorescence signal at 665 nm divided by the fluorescence signal at 615 nm using GraphPad Prism software

RORγ-LBD [2] = target: T1, RORγ-LBD; assay: RORγ-Ligand Binding Domain (LBD) TR-FRET Assay Protocol II; type: biochemical; conditions: purified RORγ-LBD, SRC1 peptide, overnight at 4° C.
Protocol: Part II—Procedures for RORγ-Ligand Binding Domain TR-FRET Assay Protocol II
HIS-tagged RORγ-LBD protein was expressed in SF9 cells using a baculovirus expression system. The RORγ-LBD protein was purified by […]. Separately, SF9 cells not expressing recombinant protein were lysed in TBS buffer (25 mM Tris, pH 8.0, 150 mM NaCl) under sonication. The lysate was added to the purified RORγ-LBD in a volume equivalent of 0.75 μL lysate (from 30,000 SF9 cells) per 75 femtomol of RORγ-LBD protein. The resulting mixture was diluted in assay buffer (50 mM Tris pH 7.0, 50 mM KCl, 1 mM EDTA, 0.1 mM DTT, 0.01% BSA) to obtain RORγ-LBD protein at a final concentration of 3 nM.
Compounds to be tested were injected to the assay plate using Acoustic Droplet Ejection technology by Echo 550 liquid handler (Labcyte, Calif.).
A stock of biotinylated-LXXLL peptide from coactivator SRC1 (Biotin-[…]) was prepared in assay buffer and added to each well (100 nM final concentration). A solution of Europium tagged anti-HIS antibody (1.25 nM final concentration) and APC-conjugated streptavidin (8 nM final concentration) were also added to each well.
as §1, with “overnight at 4° C.,” for “for 4 hours to overnight,”, “μs). The EC50 value for test compounds was calculated from the quotient of the fluorescence signal at 665 nm divided by the fluorescence signal at 615 nm” for “μs).”

| EC50 (RORγ-LBD [1]) [nM] | EC50 (RORγ-LBD [2]) [nM] | SMILES | RORγ inhibition (RORγ-LBD [1]) |
| --- | --- | --- | --- |
| 6440 |  | O=C(Nc1cc2c(cn1)cnn2S(=O)(=O)c1cccc(Cl)c1)c1c(F)cccc1Cl [Compound 7] |  |
| 3620 | 4330 | O=C(Nc1cc2c(cn1)cnn2S(=O)(=O)c1cccc(C(F)(F)F)c1)c1c(F)cccc1Cl [Compound 10] |  |
| 48000 |  | N#Cc1cccc(S(=O)(=O)n2ncc3ncc(NC(=O)c4c(F)cccc4Cl)cc32)c1 [Compound 3] | did not provide measurable RORγ inhibition |
| 20 |  | CC1COc2ncc(NC(=O)c3c(Cl)cccc3C(F)(F)F)cc2N1S(=O)(=O)c1ccc(F)cc1 (stereo not shown) [Compound 19] |  |
| 20 | 11 | C[C@H]1CN(S(=O)(=O)c2cccc(C3CC3)c2)c2cc(NC(=O)c3c(F)cccc3Cl)cnc2O1 [Compound 27] |  |
| 132 | 6 | Cc1cccc(S(=O)(=O)N2C[C@H](C)Oc3ncc(NC(=O)c4c(F)cccc4C(F)(F)F)cc32)c1 [Compound 24] |  |
| 3050 | 387 | C[C@H](C(=O)Nc1cnc2c(c1)N(S(=O)(=O)c1ccc(F)cc1)C[C@H](C)O2)c1ccccc1 [Compound 29] |  |
| 1880 | 25 | O=C(Nc1cnc2cnn(S(=O)(=O)c3cccc(C(F)(F)F)c3)c2c1)c1c(F)cccc1Cl [Compound 1, 2-chloro-6-fluoro-N-[1-(3-trifluoromethylbenzenesulfonyl)-1H-pyrazolo[4,3-b]pyridin-6-yl]benzamide] |  |
| 3520 |  | CC(C)(C)c1cccc(S(=O)(=O)n2ncc3cnc(NC(=O)c4c(F)cccc4Cl)cc32)c1 [Compound 9] |  |
| 390 | 108 | CC1COc2ncc(NC(=O)c3c(F)cccc3Cl)cc2N1S(=O)(=O)c1cccc(C#N)c1 (stereo not shown) [Compound 20] |  |
| 760 | 107 | CC(=O)NC[C@H]1CN(S(=O)(=O)c2cccc(C)c2)c2cc(NC(=O)[C@@H](C)c3ccccc3)cnc2O1 [Compound 17, (S)-N-((S)-3-(Acetamidomethyl)-1-(m-tolylsulfonyl)-2,3-dihydro-1H-pyrido[2,3-b][1,4]oxazin-7-yl)-2-phenylpropanamide] |  |
| 414 | 61 | Cc1cccc(S(=O)(=O)N2CCCc3ncc(NC(=O)[C@@H](C)c4ccccc4)cc32)c1 [Compound 38, (S)-2-phenyl-N-(5-(m-tolylsulfonyl)-5,6,7,8-tetrahydro-1,5-naphthyridin-3-yl)propanamide] |  |
| 447 | 324 | Cc1nn(C(F)F)cc1S(=O)(=O)n1ncc2cnc(NC(=O)c3c(F)cccc3Cl)cc21 [Compound 11] |  |
| 829 | 63 | C[C@H]1CN(S(=O)(=O)c2ccc(F)cc2)c2cc(NC(=O)c3c(F)cccc3Cl)cnc2O1 [Compound 26] |  |
| 1060 |  | O=C(Nc1cc2c(cn1)cnn2S(=O)(=O)c1cccc(OC(F)F)c1)c1c(F)cccc1Cl [Compound 8] |  |
| 2610 |  | O=C(Nc1cc2c(cn1)cnn2S(=O)(=O)c1ccc(F)cc1)c1c(Cl)cccc1Cl [Compound 5] |  |
| 700 | 202 | O=C(Nc1cnc2c(c1)N(S(=O)(=O)c1ccc(F)cc1)CCC2)c1c(F)cccc1F [Compound 36, 2,6-difluoro-N-(5-(4-fluorobenzenesulfonyl)-5,6,7,8-tetrahydro-[1,5]naphthyridin-3-yl)benzamide] |  |
| 50000 |  | O=C(Nc1cc2c(cn1)cnn2S(=O)(=O)c1ccc(F)cc1)c1c(F)cccc1F [Compound 4] | did not provide measurable RORγ inhibition |

| EC50 (RORγ-LBD [1]) [nM] | EC50 (RORγ-LBD [2]) [nM] | SMILES | RORγ inhibition (RORγ-LBD [1]) |
| --- | --- | --- | --- |
| 52 | 16 | Cc1cccc(S(=O)(=O)N2CCCc3ncc(NC(=O)c4c(F)cccc4Cl)cc32)c1 [Compound 37, 2-chloro-6-fluoro-N-(5-(m-tolylsulfonyl)-5,6,7,8-tetrahydro-1,5-naphthyridin-3-yl)benzamide] |  |
| 250 | 66 | CC1COc2ncc(NC(=O)c3c(F)cccc3Cl)cc2N1S(=O)(=O)c1ccc(F)cc1 (stereo not shown) [Compound 12, 2-chloro-6-fluoro-N-[1-(4-fluorobenzenesulfonyl)-2-methyl-2,3-dihydro-1H-pyrido[2,3-b][1,4]oxazin-7-yl]benzamide] |  |
| 100 |  | O=C(Nc1cnc2c(c1)N(S(=O)(=O)c1ccc(F)c(F)c1)CCO2)c1c(F)cccc1Cl [Compound 23] |  |
| 90 |  | O=C(Nc1cnc2c(c1)N(S(=O)(=O)c1ccc(Cl)cc1)CCO2)c1c(F)cccc1Cl [Compound 22] |  |
| 200 |  | N#Cc1cccc(S(=O)(=O)N2CCOc3ncc(NC(=O)c4c(F)cccc4Cl)cc32)c1 [Compound 21] |  |
| 1030 | 70 | C[C@H]1CN(S(=O)(=O)c2cccc(C#N)c2)c2cc(NC(=O)c3c(F)cccc3Cl)cnc2O1 [Compound 25] |  |
| 2410 |  | O=C(Nc1cc2c(cn1)cnn2S(=O)(=O)c1ccc(F)cc1)c1c(Cl)cccc1C(F)(F)F [Compound 6] |  |
| 2400 |  | O=C(Nc1cc2c(cn1)cnn2S(=O)(=O)c1ccc(F)cc1)c1c(F)cccc1Cl [Compound 2, 2-chloro-6-fluoro-N-[1-(4-fluorobenzenesulfonyl)-1H-pyrazolo-[4,3-c]pyridin-6-yl]benzamide] |  |
| 31 | 10 | CCc1cccc(S(=O)(=O)N2C[C@H](C)Oc3ncc(NC(=O)c4c(F)cccc4Cl)cc32)c1 [Compound 15, (S)-2-chloro-N-(1-((3-ethylphenyl)sulfonyl)-3-methyl-2,3-dihydro-1H-pyrido-[2,3-b][1,4]oxazin-7-yl)-6-fluorobenzamide] |  |
|  | 25 | COC(=O)N[C@@H]1Cc2ncc(NC(=O)c3c(Cl)cccc3Cl)cc2N(S(=O)(=O)c2cccc(C)c2)C1 [Compound 42, (R)-methyl (7-(2,6-dichlorobenzamido)-1-(m-tolylsulfonyl)-1,2,3,4-tetrahydro-1,5-naphthyridin-3-yl)carbamate] |  |
| 174 |  | O=C(Nc1cnc2c(c1)N(S(=O)(=O)c1ccc(F)cc1)CCO2)c1c(F)cccc1Cl [Compound 13, 2-chloro-6-fluoro-N-[1-(4-fluorobenzenesulfonyl)-2,3-dihydro-1H-pyrido[2,3-b][1,4]oxazin-7-yl]benzamide] |  |
|  | 23 | Cc1cccc(S(=O)(=O)N2C[C@H](NC(=O)[C@H](C)O)Cc3ncc(NC(=O)c4c(Cl)cccc4Cl)cc32)c1 [Compound 67] |  |
|  | 24 | CC(=O)NC[C@H]1CN(S(=O)(=O)c2cccc(C3CC3)c2)c2cc(NC(=O)c3c(Cl)cccc3Cl)cnc2O1 [Compound 43] |  |
|  | 7 | C[C@H]1CN(S(=O)(=O)c2cccc(C3CC3)c2)c2cc(NC(=O)c3c(Cl)cccc3Cl)cnc2O1 [Compound 35] |  |
|  | 98 | Cc1cccc(S(=O)(=O)N2CC(N(C)C)COc3ncc(NC(=O)c4c(Cl)cccc4Cl)cc32)c1 (stereo not shown) [Compound 76, 2,6-dichloro-N-[7-dimethylamino-5-(toluene-3-sulfonyl)-5,6,7,8-tetrahydro-9-oxa-1,5-diaza-benzocyclohepten-3-yl]-benzamide] |  |
|  | 30 | O=C(Nc1cnc2c(c1)N(S(=O)(=O)c1cccc(Cl)c1)C[C@H](CN1CCOCC1)O2)c1c(Cl)cccc1Cl [Compound 90] |  |
|  | 42 | O=C(Nc1cnc2c(c1)N(S(=O)(=O)c1cccc(C(F)(F)F)c1)C[C@@H](N1CCOC1=O)C2)c1c(Cl)cccc1Cl [Compound 97, (S)-2,6-dichloro-N-(7-(2-oxooxazolidin-3-yl)-5-((3-(trifluoromethyl)phenyl)sulfonyl)-5,6,7,8-tetrahydro-1,5-naphthyridin-3-yl)benzamide] |  |
